We go through three substances from patent US6372884B1, “Biologically active compounds and methods of constructing and using the same” (priority 1987, dated 2002).

Ends that are not written are not given here.

Data set [1] has as its system reovirus type 3. On the set-up: species or system Balb/c mice. To be noted: mouse, in vivo.
Data set [2] relates to reovirus type 1. On the set-up: species or system Balb/c mice. The note with it: mouse, in vivo.
The test system of data set [3] is reovirus type 3. On the set-up: species or system mice. To be noted: mouse, in vivo.
The test system of a further data set is type 3 virus. On the set-up: species or system Balb/c mice. To be noted: mouse, in vivo.
For data set [4], the system named is neutralizing monoclonal antibody 9BG5. The format is binding, mouse.
The test system of data set [5] is reovirus type 1. The arrangement: species or system Balb/c mice. To be noted: mouse, in vivo. This is another data set of the same source.
Data set [6] deals with reovirus type 3. The arrangement: species or system Balb/c mice. The note with it: mouse, in vivo. The source holds these as a separate data set.
The test system of a further data set is type 1 virus. On the set-up: species or system Balb/c mice. To be noted: mouse, in vivo.
Data set [7] deals with 9B.G5. Kind of data set: Competitive RIA: inhibition of 9B.G5 - 87.92.6 interaction. The format is binding.
Another data set relates to Reo3R. Kind of data set: Inhibition of 125I-labelled reovirus type 3 binding to the Reo3R on cells. The procedure: The cells were centrifuged and washed twice in 1% BSA/PBS/0.1% NaN3. 5×10^4 cells or 1.25×10^6 R1.1 cells in 50 μl were distributed in 2% BSA/PBS/NaN3 blocked RIA wells. For peptide studies, 50 μl of inhibitor was added in dH2O to the cells. Following a 30 minute incubation, L cells and ^125I-labelled reovirus type 3 were combined for an additional 30 minutes at 37° C. The cells were spun, washed three times in ice cold PBS, and specific CPM bound was determined as noted above. Percent inhibition of binding was calculated by the formulae above.
To further evaluate the interaction of VLC9C16 peptide with the Reo3R, the peptide was utilized to compete with ^125I-labelled reovirus type 3 for binding to the Reo3R.

A short description of data set [8]: Rate of loss of sulfhydryls on air oxidation (Ellman determination). The data set is classed as physicochemical. To be noted: 2 mg/ml in 0.1 M NaHCO3, 37° C., exposed to air, FIG. 23. (In general: DTNB colorimetry detects thiols as they appear.)
The target in another data set is T1, Thy2 molecules (Mus musculus, UniProt P01831).
T1 sequence (P01831 20-131): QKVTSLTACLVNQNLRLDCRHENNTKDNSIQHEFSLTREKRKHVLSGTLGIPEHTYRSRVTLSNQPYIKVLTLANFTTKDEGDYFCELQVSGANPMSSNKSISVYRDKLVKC
Nature of the data set: Flow cytometry: inhibition of H013.4 binding (specificity). The arrangement: species or system murine. The note with it: FIG. 30. In general terms: Flow cytometry measures light scatter and fluorescence of single cells or particles in a stream.

The test system of data set [9] is 9B.G5. Nature of the data set: Competitive RIA: inhibition of 9B.G5 - reovirus type 3 interaction. The format is binding.
Data set [10] relates to reovirus type 3 receptor (Reo3R). Kind of data set: Flow cytometry: inhibition of 87.92.6 binding to cells. To be noted: FIG. 29. The arrangement: species or system murine. The procedure:
The ability of peptides to inhibit antibody binding to cells was determined by preincubation of the cells with varying amounts of inhibitor (in 100 μl dH2O) for between 30 minutes and 1 hour at 23° C. Cells (either L cells or R1.1 cells) were washed in 1% BSA/PBS/0.1% NaN3, and resuspended at 10^7/ml. 100 μl of cells were then added in 1% BSA/PBS/0.1% NaN3, and the incubation continued for 20-30 minutes. Antibodies (5 or 10 μl were added for an additional 20 minutes at 23° C. Ice cold 1% BSA/PBS/0.1% NaN3, was added, the cells centrifuged and washed prior to counterstaining with a 1:100 dilution of FITC goat anti-mouse Ig (Fisher Scientific) in 1% BSA/PBS/0.1% NaN3. The cells were washed twice and fluorescence intensity determined. Inhibition of binding was calculated as noted above with mean channel number utilized in place of CPM.
To assess the affinity of the cyclic peptides for the reovirus type 3 receptor (Reo3R), they were utilized in a series of assays to inhibit binding of 87.92.6 or control antibodies to specific receptors. […] The inhibition by VLC9C16 peptide was specific as binding of isotype matched monoclonal H013.4 to Thy2 molecules was not inhibited by VLC9C16 peptide (FIG. 30). Thus, VLC9C16 peptide is a specific Reo3R ligand with enhanced affinity compared with its linear analog.

Data set [11] is described as follows: Size-exclusion chromatography of oxidized peptides (Sephadex G-10). The data set is classed as physicochemical. The note with it: reduced versus non-reduced peptides.
For data set [12], the system named is 9B.G5. Nature of the data set: Solid phase RIA: binding of 9B.G5 to peptide coated plates. The note with it: FIG. 24. How it is done: RIA plates (Dynatech Laboratories, Alexandria, Va.) were coated with peptides by evaporation of varying amounts of peptides in distilled water overnight at 37° C. The wells were washed with PBS, blocked with 2% bovine serum albumin (BSA) in PBS with 0.1% NaN3, and washed with PBS. Partially purified 9BG5 [(NH4)2SO4 precipitate] was added at varying dilutions for greater than 1 hour at 37° C. The wells were washed in PBS and 50,000-100,000 counts per minute of ^125I-labelled goat anti-mouse light chain (anti-k & anti-[Sigma] iodinated by chloramine T) was added per well in 1% BSA in PBS for 1-2 hours at 37° C. The wells were decanted, washed extensively, and CPM bound determined. Specific CPM bound was determined by subtracting the CPM bound to uncoated wells from the CPM bound to peptide coated wells.
To assess the optimal conformation for binding of the VL peptide analogs, they were utilized to coat radioimmunoassay (RIA) plates, and 9B.G5 bound by standard RIA procedures.

The subject of a further data set is recombinant HIV-1 gp120. To be noted: rabbits immunized with peptide conjugated to KLH, FIG. 21. The procedure: Antisera was obtained and tested for binding to recombinant HIV-1 gp120 peptide-coated radioimmunoassay plates (using 1 μg/ml gp120 at 50 μl/well, in 0.1 M NaHCO3 and incubating overnight at 4° C.). The indicator antibody was ^125I-labelled anti-rabbit immunoglobulin antibody.

Data set [13] relates to HIV. Nature of the data set: Infectivity assays with rabbit antisera. To be noted: in vivo.
Data set [14] has as its system recombinant glycosylated gp120. To be noted: radiolabelled immunoprecipitations. How it is done: The immunogenicity of B138 was determined by subcutaneous immunization of mice and rabbits.
A further data set relates to […]-infected H9 cells. Kind of data set: Flow cytometry: mouse antisera binding to infected H9 cells. The format is in vivo. To be noted: subcutaneous immunization of mice.
Data set [15] has as its system HIV. Nature of the data set: Blocking of virus binding by gp120 421-438 peptide. An excerpt:
A molecular model for the region 413-455 (FIG. 19) may be constructed based upon these structural concepts, utilizing a light-chain antibody structure known as REI (Bernstein et al., 1977, Mol. Biol. 112:535-542) as a template for the first and third hypervariable region, in which the cysteines in gp120 at positions 418 and 445 form a disulfide bridge. The cysteines are positionally conserved with respect to each other as in the light chain. The model may be energy optimized using molecular mechanics and dynamics. […] The in vitro biological activity of the 421-438 peptide fragment in modulating CD4-depending cellular function and this fragment's ability to induce an anti-HIV response is as described below.

Take “Gln Ser Met --- Trp Ile Gly Ile Val Ser Tyr Ser Gly Ser Gly Leu Asn (WIGIVSYSGSGLN; N-terminal Gln-Ser-Met; printed: Trp Ile Gly Ile Val Ser Tyr Ser Gly Ser Gly Leu Asn) [reo peptide, amino acids 317-332 in the type 3 viral hemagglutinin]”: the “binding of immune serum to type 3 virus coated plates” value in the data set with reovirus type 3 [1] is “significant binding”. Besides, the “binding of immune serum to type 1 virus coated plates” value with reovirus type 1 [2] is “significant binding”. For the same substance, in the data set with reovirus type 3 [3], the “proliferative response to reovirus type 3 in spleen cells from immunized mice” value is on record as “type specific proliferative response”. Moreover, the “inhibition of plaque formation by type 3 virus by immune serum” value with type 3 virus is “specific inhibition of plaque formation”. Besides, the “specific binding of 9BG5 to peptide coated wells” value in data set [4] is reported as “Strong reproducible binding”. Besides, the “neutralization of L-cell lysis by reovirus type 1 by immune serum” value in the data set on reovirus type 1 [5] is listed as “not type 1”. Moreover, the “neutralization of L-cell lysis by reovirus type 3 by immune serum” value in the data set on reovirus type 3 [6] was “specifically neutralized”. Further, in the data set on type 1 virus, the “inhibition of plaque formation by type 1 virus by immune serum” value is “not type 1”.
On to “KPGKTNKLCIYSGSTCQ (cysteine pairing not given here) [VLC9C16 peptide]”, for which the “increase in binding affinity for 9B.G5 compared with linear analog of VL peptide” value with 9B.G5 [7] (inhibition of 9B.G5 - 87.92.6 interaction, FIG. 26) was 40 fold. Also, the “inhibition of 9B.G5 - 87.92.6 interaction” value with 9B.G5 [7] (liquid phase assay, FIGS. 25 and 26) was “higher affinity of interaction compared with the other cyclic peptide variants”. The “affinity for the Reo3R by competition with 125I-labelled reovirus type 3” value with Reo3R (FIG. 31) is given as “higher affinity for the Reo3R than VLC8C16 peptide or VLC10C16 peptide”. Besides, the “increase in affinity for the Reo3R compared with linear VL peptide” value in the data set with Reo3R (competition with 125I-labelled reovirus type 3) is recorded as 40 fold. The “rate of loss of sulfhydryls” value in [8] is on record as “most rapid loss of sulfhydryls”. The “inhibition of binding of isotype matched monoclonal H013.4” value in the data set with Thy2 molecules is “not inhibited”. Further, in the data set on 9B.G5 [9] (FIG. 27), the “inhibition of binding of 125I-labelled reovirus type 3 to 9B.G5, compared with other cyclic peptides” value is listed as “higher affinity than the other cyclic peptides”. The “inhibition of binding of 125I-labelled reovirus type 3 to 9B.G5, compared with linear VL and dimeric VLSH peptide” value with 9B.G5 [9] (FIG. 28) was “higher affinity than linear VL peptide, and similar affinity on a molar basis as dimeric VLSH peptide”. For the same substance, the “inhibition of binding of 87.92.6 to murine L cells” value in [10] (L cells) is “inhibited binding”. Also, the “inhibition of binding of 87.92.6 to R1.1 thymoma cells” value in data set [10] (R1.1 cells) is reported as “inhibited binding”. Moreover, in data set [11], the “molecular form following oxidation by size-exclusion chromatography” value was “remained chiefly as monomers”. The “binding of 9B.G5 to peptide on solid phase RIA” value in the data set with 9B.G5 [12] was “higher than binding to the other cyclic VL peptide analogs”.
KQFINMWQEVGKAMYAPP [B138]: the “level of antiserum antibody bound to gp120 coated plates” value in the data set with recombinant HIV-1 gp120 is listed as “lower levels of bound antibody”. The “elicitation of neutralizing antibodies (infectivity assays with rabbit sera)” value with HIV [13] is listed as “could elicit neutralizing antibodies”. Moreover, the “immunoprecipitation of recombinant glycosylated gp120 by rabbit antisera” value in data set [14] is “weakly”. Besides, in data set […]-infected H9 cells, the “binding of mouse antisera to infected H9 cells” value is given as “preferentially bind”. The “blocking of virus binding” value in the data set with HIV [15] is “shown to block virus binding”.
